Measurements from patent US11331020B2 (TRUSTEES OF BOSTON UNIVERSITY, priority 2020, dated 2022).
Where two headings read alike, the source gives them in different places.

Tests used:
NicA2 [1] = target: T1, NicA2 (Pseudomonas putida, UniProt F8G0P2); type: biochemical, Pseudomonas putida S16; conditions: for effect on the response to nicotine: 200 μM nicotine solution added
T1 construct: poly-histidine; made in house; host or cells: E. coli BL21 (DE3)
Description: (§1) Chronoamperometric responses were recorded overtime, with a potential −0.2 V (versus Ag/AgCl). At the beginning of the experiment, 30 μL 1×DPBS was added to the biosensor, followed by an addition of 30 μL nicotine solution at predefined time point. To evaluate the selectivity of the sensor chronoamperometric responses to nicotine were measured in the presence of the common interferents at relevant physiological concentrations in sweat (see e.g., Table 4). Addition of 30 μL 200 μM nicotine solution to 30 μL mixture was performed at a predefined time point and the current was recorded over time. Similar experiments were performed to evaluate the selectivity of the sensor to cotinine. Current was recorded where 30 μL 200 μM nicotine solution was added to 30 μL cotinine solutions.
(§2) Chronoamperometric responses were recorded at −0.2 V vs. a Ag/AgCl reference electrode.

NicA2 [2] = target: T2, NicA2 (Pseudomonas putida, UniProt F8G0P2, N462Y/W427Y); type: biochemical, Pseudomonas putida S16; conditions: FIG. 17C (N462Y/W427Y mutant), FIG. 10D
T2 construct: poly-histidine; made in house; host or cells: E. coli BL21 (DE3)
Description: as §1, §2

[3] = Activity of NicA2 mutants versus wild type NicA2; type: biochemical; conditions: compared to wild type and other NicA2 mutants
Description: In some embodiments, the size of the working electrode is in the range of 5-8 π mm^2, or 8-10π mm^2, or 10-12π mm^2, or 12-15π mm^2, or greater than 15π mm^2.

T1 sequence (F8G0P2 39-482): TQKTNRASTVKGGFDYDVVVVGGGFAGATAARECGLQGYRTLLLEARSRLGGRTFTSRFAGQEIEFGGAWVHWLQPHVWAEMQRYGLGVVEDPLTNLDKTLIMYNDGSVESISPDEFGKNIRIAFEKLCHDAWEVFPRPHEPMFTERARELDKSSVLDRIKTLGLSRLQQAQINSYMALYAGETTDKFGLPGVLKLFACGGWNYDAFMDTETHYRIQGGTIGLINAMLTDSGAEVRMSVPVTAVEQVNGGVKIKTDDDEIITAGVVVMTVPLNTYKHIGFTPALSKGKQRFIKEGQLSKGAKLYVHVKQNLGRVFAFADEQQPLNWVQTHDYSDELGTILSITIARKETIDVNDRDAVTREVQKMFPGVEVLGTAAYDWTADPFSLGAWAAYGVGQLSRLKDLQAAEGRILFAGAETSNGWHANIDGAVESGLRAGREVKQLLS

CN1C(=O)CC[C@H]1c1cccnc1 [cotinine]
effect on the response to nicotine (NicA2 [1]; chronoamperometry): minimally affected the nicotine response
effect on the response to nicotine (NicA2 [1]; chronoamperometry, listed as Cotinine): minimal effect upon the nicotine response
current produced by NicA2 with the analyte (NicA2 [2]): did not produce a current

c1cncc(C2=NCCC2)c1 [myosmine]
reduction of signal (NicA2 [1]; added during a chronoamperometric experiment with nicotine): approximately 50%
response from the substance alone (NicA2 [1]; chronoamperometry, no nicotine): Minimal responses

B1: N462Y/W427Y: mutant NicA2 enzyme, SEQ ID NO: 4 (protein)
chain: MSDKTKTNEGFSRRSFIGSAAVVTAGVAGLGAIDAASATQKTNRASTVKGGFDYDVVVVGGGFAGATAARECGLQGYRTLLLEARSRLGGRTFTSRFAGQEIEFGGAWVHWLQPHVWAEMQRYGLGVVEDPLTNLDKTLIMYNDGSVESISPDEFGKNIRIAFEKLCHDAWEVFPRPHEPMFTERARELDKSSVLDRIKTLGLSRLQQAQINSYMALYAGETTDKFGLPGVLKLFACGGWNYDAFMDTETHYRIQGGTIGLINAMLTDSGAEVRMSVPVTAVEQVNGGVKIKTDDDEIITAGVVVMTVPLNTYKHIGFTPALSKGKQRFIKEGQLSKGAKLYVHVKQNLGRVFAFADEQQPLNWVQTHDYSDELGTILSITIARKETIDVNDRDAVTREVQKMFPGVEVLGTAAYDWTADPFSLGAYAAYGVGQLSRLKDLQAAEGRILFAGAETSNGWHAYIDGAVESGLRAGREVKQLLSLEHHHHHH
oxidation activity of NicA2 mutant [3]: increased oxidative activity
